# Data: paper PMC10157890, “Lysine Deacetylase Substrate Selectivity: Distinct Interaction Surfaces Drive Positive and Negative Selection for Residues Following Acetyllysine” (Biochemistry, 2023)
# Target: T1, Full-length human KDAC8 (Homo sapiens, UniProt Q9BY41)
# T1 construct: Full-length human KDAC8 (UniProtKB Q9BY41) was recombinantly expressed fused to a C-terminal His6 tag; TEV protease cleavage site (C); His6 (C); made in house; host or cells: Escherichia coli
# T1 sequence (Q9BY41 1-377): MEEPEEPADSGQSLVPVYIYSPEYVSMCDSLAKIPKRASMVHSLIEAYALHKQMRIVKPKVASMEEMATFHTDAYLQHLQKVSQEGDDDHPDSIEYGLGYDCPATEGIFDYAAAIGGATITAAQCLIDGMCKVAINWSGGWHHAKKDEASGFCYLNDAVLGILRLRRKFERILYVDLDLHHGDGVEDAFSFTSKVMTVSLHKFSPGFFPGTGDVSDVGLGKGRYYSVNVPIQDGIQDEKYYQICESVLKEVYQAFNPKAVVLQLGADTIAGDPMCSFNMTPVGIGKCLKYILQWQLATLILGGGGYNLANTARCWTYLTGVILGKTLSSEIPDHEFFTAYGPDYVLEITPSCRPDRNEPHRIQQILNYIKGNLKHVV
# Test: Activity of KDAC8 with putative substrate peptides (verification of substrate preferences)
# Assay type: biochemical
# Conditions: endpoint, 100 μM peptide, 50–200 nM KDAC, 25 °C, pH 7.6, 15–60 min, buffer also containing 100 mM KCl; average ± SD; SD
# Experimental: (§1) Peptide substrates were synthesized to >95% purity (GenScript) with N-terminal acetylation and C-terminal amidation. For endpoint experiments, 100 μM peptide substrates were reacted with 50–200 nM KDAC at 25 °C at pH 7.6 for 15–60 min. Deacetylation was measured using a fluorescamine-based assay that was previously described in detail.[18] Reported raw activity for each enzyme–substrate pair is the average and standard deviation for n ≥ 4 unless otherwise noted. Normalized activity was calculated by defining the activity of each KDAC with the FRK^acWR peptide equal to 1. Statistical significance was determined by calculating p values using two-tailed t-tests, assuming similar variance. The significance threshold was set at p ≤ 0.01 with the Bonferroni correction for multiple testing. Kinetic parameters were determined for a subset of enzyme–substrate pairs. In these experiments, 50–200 nM KDAC was reacted with ≥5 substrate concentrations from 10 to 2500 nM and ≥3 timepoints at intervals of 3–20 min were collected for each substrate concentration. Deacetylation was measured using the same method as the endpoint experiments, and KM and kcat were calculated from the observed activity of each reaction as previously described.[18] Activity assays with peptides for verification of substrate preferences were performed as for endpoint experiments, except in a buffer also containing 100 mM KCl. Statistical analysis of the correlation of the presence of particular substrate residues with activity was performed using Fisher’s exact test with a significance threshold of p ≤ 0.05.
# We performed a similar experiment for KDAC8, this time using substrates that have been described as potential KDAC8 substrates from cell-based studies or which contained residues in the +1 and/or +2 positions that were identified to enhance activity of KDAC8. […] In addition, we also considered phenylalanine, as we did for KDAC6. Here, we looked at the correlation between peptides having any of these features and activity. While the result was less striking than for KDAC6, there was still a positive correlation between the presence of the identified residues and activity (Table 3; p = 0.048). Although we have identified only a portion of the interactions that likely contribute to substrate selectivity for these enzymes, these interactions correlate with a statistically significant increase in activity with peptides from potential biological substrates in an unbiased background of residues in other positions.
row,Substance,"specific activity, KDAC8 with putative substrates"
1,LGGK^acQRA [acetyllysine peptide from retinoic acid-induced protein 1 (Q7Z5J4)],0.0006 ± 0.0004 s^–1
2,QLSK^acWP [acetyllysine peptide from forkhead box protein O3 (O43524)],0.020 ± 0.006 s^–1
3,TGNK^acYVP [acetyllysine peptide from tubulin β-3 chain (Q13509)],0.0011 ± 0.0006 s^–1
4,"RIPK^acEQW [acetyllysine peptide from ATP-dependent 6-phosphofructokinase, platelet type (Q01813)]",0.0031 ± 0.0015 s^–1
5,PLWK^acGIG [acetyllysine peptide from regulator of nonsense transcripts 1 (Q92900)],0.0035 ± 0.0021 s^–1
6,RFTK^acCLR [acetyllysine peptide from steroid hormone receptor ERR1 (P11474)],0.0030 ± 0.0016 s^–1
7,RMFK^acQFN [acetyllysine peptide from transcription intermediary factor 1-β (Q13263)],0.015 ± 0.014 s^–1

# Same assay, conditions: endpoint, 100 μM peptide, buffer also containing 100 mM KCl; limit of reliable detection 0.0004 s^–1
row,Substance,"specific activity, KDAC8 with putative substrates (no activity above limit)"
1,EIGK^acTLA,– (– indicates no activity above the limit of reliable detection (0.0004 s^–1))
2,EVGK^acLLN [acetyllysine peptide from centromere protein F (P49454)],– (– indicates no activity above the limit of reliable detection (0.0004 s^–1))
3,VGGK^acDFE [acetyllysine peptide from PDZ and LIM domain protein 1 (O00151)],– (– indicates no activity above the limit of reliable detection (0.0004 s^–1))

# Target: T2, full-length human KDAC6 (Homo sapiens, UniProt Q9UBN7)
# T2 construct: A pFastbac1 construct containing full-length human KDAC6 (UniProtKB Q9UBN7) with a C-terminal His6 tag; His6 (C); made in house; host or cells: ExpiSf9 insect cells (baculovirus)
# T2 sequence (Q9UBN7 1-1215): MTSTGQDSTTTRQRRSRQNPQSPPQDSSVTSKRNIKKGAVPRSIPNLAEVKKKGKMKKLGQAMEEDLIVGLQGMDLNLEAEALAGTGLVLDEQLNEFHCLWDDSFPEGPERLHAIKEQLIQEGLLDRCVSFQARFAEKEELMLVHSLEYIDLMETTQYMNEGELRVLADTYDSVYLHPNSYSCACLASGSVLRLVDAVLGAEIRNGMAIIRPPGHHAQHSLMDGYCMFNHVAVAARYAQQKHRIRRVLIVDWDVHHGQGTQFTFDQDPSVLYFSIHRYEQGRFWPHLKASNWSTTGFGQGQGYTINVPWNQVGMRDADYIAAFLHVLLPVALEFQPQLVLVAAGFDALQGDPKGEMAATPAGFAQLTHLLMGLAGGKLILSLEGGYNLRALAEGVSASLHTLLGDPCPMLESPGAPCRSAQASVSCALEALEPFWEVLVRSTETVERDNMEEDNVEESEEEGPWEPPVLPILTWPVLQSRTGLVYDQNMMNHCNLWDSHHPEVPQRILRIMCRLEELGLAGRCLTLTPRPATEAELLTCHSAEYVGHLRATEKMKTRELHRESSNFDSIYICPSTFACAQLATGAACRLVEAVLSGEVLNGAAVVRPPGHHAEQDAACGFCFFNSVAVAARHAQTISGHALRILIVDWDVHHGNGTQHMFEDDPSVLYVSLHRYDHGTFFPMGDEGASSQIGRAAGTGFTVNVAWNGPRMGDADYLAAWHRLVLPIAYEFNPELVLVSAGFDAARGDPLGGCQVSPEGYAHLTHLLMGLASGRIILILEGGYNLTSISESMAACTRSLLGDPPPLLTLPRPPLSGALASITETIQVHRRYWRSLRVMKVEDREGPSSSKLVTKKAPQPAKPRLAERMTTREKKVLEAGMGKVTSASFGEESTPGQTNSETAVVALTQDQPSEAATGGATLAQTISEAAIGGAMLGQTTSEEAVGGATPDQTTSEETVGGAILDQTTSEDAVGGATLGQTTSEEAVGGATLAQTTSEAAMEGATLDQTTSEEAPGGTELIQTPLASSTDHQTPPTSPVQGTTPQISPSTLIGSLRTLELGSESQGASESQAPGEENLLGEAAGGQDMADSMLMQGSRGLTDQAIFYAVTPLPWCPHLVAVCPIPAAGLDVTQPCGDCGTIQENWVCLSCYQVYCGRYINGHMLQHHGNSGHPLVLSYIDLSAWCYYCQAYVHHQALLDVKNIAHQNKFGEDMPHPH
# Test: Activity of KDAC6 with putative substrate peptides (verification of substrate preferences)
# Assay type: biochemical
# Conditions: endpoint, 100 μM peptide, 50–200 nM KDAC, 25 °C, pH 7.6, 15–60 min, buffer also containing 100 mM KCl; average ± SD; SD
# Experimental: as §1
# In contrast with the peptides tested thus far, which were all derivatives of a single substrate, these panels consisted of peptides derived from human proteins in which the lysine residue is known to be acetylated in cells.[3],[5],[42],[50]−[72] For each enzyme, peptides were included either because they contained an acetyllysine that has been identified as a putative substrate of the KDAC from published cellular studies and/or because the peptide contained a residue that appeared to drive KDAC activity in our analysis. For KDAC6, we observed that of the set of peptides that were tested, six contained tryptophan or tyrosine directly after the acetyllysine. Remarkably, all of these peptides appeared in the top seven most reactive substrates tested (Table 2). Assuming that phenylalanine would behave similarly to tryptophan and tyrosine, we determined that there was a statistically significant correlation between whether or not a peptide was deacetylated by KDAC6 and the presence of tyrosine, tryptophan, or phenylalanine in the +1 position (p = 0.011). […] Thus, our conclusion that the presence of these aromatic residues in the +1 position relative to the acetyllysine is a major factor promoting KDAC6 activity has predictive utility and provides some understanding of the underlying mechanistic basis.
row,Substance,"specific activity, KDAC6 with putative substrates"
1,QLSK^acWP [acetyllysine peptide from forkhead box protein O3 (O43524)],0.14 ± 0.03 s^–1
2,QATK^acDAG [acetyllysine peptide from heat shock 70 kDa protein 1A/1B (P0DMV8/P0DMV9)],0.022 ± 0.006 s^–1
3,GAGK^acHVP [acetyllysine peptide from tubulin α-1A chain (P68369)],0.06 ± 0.03 s^–1
4,"YFSK^acHN [acetyllysine peptide from peroxiredoxin-2 (P32119), C-terminus, not amidated]",0.010 ± 0.006 s^–1
5,TGNK^acYVP [acetyllysine peptide from tubulin β-3 chain (Q13509)],0.10 ± 0.04 s^–1
6,LSGK^acGNP [acetyllysine peptide from catenin β-1 (P35222)],0.042 ± 0.009 s^–1
7,IIDK^acSQL [acetyllysine peptide from serine/threonine-protein kinase SIK2 (Q9H0K1)],0.011 ± 0.009 s^–1
8,TDGK^acVFQ [acetyllysine peptide from 60S ribosomal protein L24 (P83731)],0.026 ± 0.024 s^–1
9,LDHK^acFDL [acetyllysine peptide from tubulin α-1A chain (P68369)],0.009 ± 0.007 s^–1

# Same assay, conditions: endpoint, 100 μM peptide, buffer also containing 100 mM KCl; limit of reliable detection 0.0013 s^–1
row,Substance,"specific activity, KDAC6 with putative substrates (no activity above limit)"
1,LISK^acIRE [acetyllysine peptide from tubulin β (Q13509)],– (– indicates no activity above the limit of reliable detection (0.0013 s^–1))
2,PDRK^acPFP [acetyllysine peptide from E3 SUMO-protein ligase EGR2 (P11161)],– (– indicates no activity above the limit of reliable detection (0.0013 s^–1))
3,SVRK^acGIM,– (– indicates no activity above the limit of reliable detection (0.0013 s^–1))
4,VLEK^acLGE [acetyllysine peptide from serine/threonine-protein kinase 4 (Q13043)],– (– indicates no activity above the limit of reliable detection (0.0013 s^–1))
5,PSPK^acVSD [acetyllysine peptide from tubulin β-3 chain (Q13509)],– (– indicates no activity above the limit of reliable detection (0.0013 s^–1))
6,TLSK^acLHE [acetyllysine peptide from protein diaphanous homologue 3 (Q9NSV4)],– (– indicates no activity above the limit of reliable detection (0.0013 s^–1))
7,PEAK^acSLL [acetyllysine peptide from RAC-α serine/threonine-protein kinase (P31749)],– (– indicates no activity above the limit of reliable detection (0.0013 s^–1))
8,FFHK^acVNE [acetyllysine peptide from Mitofusin-1 (Q8IWA4)],– (– indicates no activity above the limit of reliable detection (0.0013 s^–1))
9,DLAK^acVQR [acetyllysine peptide from tubulin α-1A chain (P68369)],– (– indicates no activity above the limit of reliable detection (0.0013 s^–1))
